Laboratory results taken from patent US7226936B2, “Pyridinic sulfonamide derivatives method of production and use thereof” (University De Liege, priority 2001, dated 2007).

Legend:
[1] = test system: rat paw oedema; assay: Carrageenin-induced rat paw oedema model; assay type: in vivo, Wistar rats; details: for percentage of growth of the paw after injection of carrageneen: 1 h before carrageenin, paw weighed 3 h after, mean±standard deviation, n=6, control 96 ± 8.7
Experimental: The activity of the derivatives has also been evaluated by using a rat paw oedema pharmacological model.
In Carrageenin-induced rat paw oedema model, Wistar rats were used. The mean weight of the animals was 250 g. The animals were treated with an intraperitoneal injection of the drug at the appropriate concentration (solution at the concentration of 10 mg/mL in DMSO). Lambda carrageenin (0.1 mL; 1%) was injected one hour later in the plantar region of the right hand paw. Three hours thereafter, the rats were euthanasied by injection of nembutal (100 mg/kg) and the paws were cutted at the ankle. The swelling was calculated as a percentage increase in the weight of the control paw.
Results are expressed as percentage of growth of the paw after injection of carrageneen (mean±standard deviation, n=6).

[2] = molecular target: T1, COX-2 (Homo sapiens, UniProt P35354); assay: whole blood assay, COX-2 inhibition; assay type: cell-based
T1 construct: endogenous in cells; host or cells: whole blood (blood cells)
T1 sequence (P35354 18-604): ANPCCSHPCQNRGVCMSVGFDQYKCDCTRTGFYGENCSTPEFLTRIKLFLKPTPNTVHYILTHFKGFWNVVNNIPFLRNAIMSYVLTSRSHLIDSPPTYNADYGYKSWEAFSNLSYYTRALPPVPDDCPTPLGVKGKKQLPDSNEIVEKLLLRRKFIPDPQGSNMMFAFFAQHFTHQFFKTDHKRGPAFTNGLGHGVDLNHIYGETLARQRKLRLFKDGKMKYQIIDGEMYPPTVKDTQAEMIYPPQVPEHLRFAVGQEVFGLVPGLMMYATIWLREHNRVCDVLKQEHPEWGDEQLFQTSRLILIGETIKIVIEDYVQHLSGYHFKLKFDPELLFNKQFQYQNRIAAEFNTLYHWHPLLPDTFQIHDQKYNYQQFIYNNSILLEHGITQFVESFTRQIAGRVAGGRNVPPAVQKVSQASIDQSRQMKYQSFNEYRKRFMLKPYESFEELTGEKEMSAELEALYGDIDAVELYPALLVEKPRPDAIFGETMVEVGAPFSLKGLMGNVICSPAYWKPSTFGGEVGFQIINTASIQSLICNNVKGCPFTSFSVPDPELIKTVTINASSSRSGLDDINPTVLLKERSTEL

activity as COX-2 inhibitor (in words) ([2]; conclusion from Table 1): active as COX-2 inhibitor | IC50 ([2]; estimated IC50, whole blood assay): 400 nM
SMILES: O=S(=O)(Nc1ccncc1Oc1ccccc1)C(F)(F)F [Compound 1, N-(3-phenoxy-4-pyridinyl)trifluoromethane-sulfonamide]
percentage of growth of the paw after injection of carrageneen ([1]; 5 mg/kg intraperitoneal): 101.0 ± 8.1 percentage | percentage of growth of the paw after injection of carrageneen ([1]; 10 mg/kg intraperitoneal): 74.7 ± 7.2 percentage | percentage of growth of the paw after injection of carrageneen ([1]; 30 mg/kg intraperitoneal): 54.1 ± 17.5 percentage | anti-inflammatory effect in vivo (in words) ([1]; conclusion from Table 2): presents an anti-inflammatory effect in vivo
